# Counter-ions that a name gives are not always drawn.
# How the values were obtained:
# [1] = biological target: T1, Human CYP2D6 SUPERSOMES (Homo sapiens, UniProt P10635); assay: Metabolic stability in CYP2D6 SUPERSOMES; type: in vitro ADME; conditions: 1 μM test compound, 2 mM NADPH, 0.1 M potassium phosphate buffer pH 7.4, 37° C., 0-30 minutes, parent remaining by LC-MS/MS
# T1 construct: purchased GenTest (Woburn, Mass., USA)
# Protocol: (§1) Human CYP2D6 SUPERSOMES™ were purchased from GenTest (Woburn, Mass., USA). […] The 7.5 mM stock solutions were diluted to 50 μM in acetonitrile (ACN). The […] CYP2D6 supersomes were diluted to 62.5 μmol/mL in 0.1 M potassium phosphate buffer, pH 7.4, containing 3 mM MgCl2. The diluted SUPERSOMES™ were added to wells of a 96-well deep-well polypropylene plate in triplicate. 10 μL of the 50 μM test compound was added to the supersomes and the mixture was pre-warmed for 10 minutes. Reactions were initiated by addition of pre-warmed NADPH solution. The final reaction volume was 0.5 mL and contained 50 μmol/mL CYP2D6 SUPERSOMES™, 1 μM test compound, and 2 mM NADPH in 0.1 M potassium phosphate buffer, pH 7.4, and 3 mM MgCl2. The reaction mixtures were incubated at 37° C. and 50 μL aliquots were removed at 0, 5, 10, 20, and 30 minutes and added to shallow-well 96-well plates which contained 50 μL of ice-cold ACN with internal standard to stop the reactions. The plates were stored at 4° C. for 20 minutes after which 100 μL of water was added to the wells of the plate before centrifugation to pellet precipitated proteins. Supernatants were transferred to another 96-well plate and analyzed for amounts of parent remaining by LC-MS/MS using an Applied Bio-systems API 4000 mass spectrometer.
# (§2) The in vitro half-life (t1/2) for each of the test compounds was calculated from the slopes of the linear regression of % parent remaining (ln) vs incubation time relationship: in vitro t1/2=0.693/k, where k=−[slope of linear regression of % parent remaining(ln) vs incubation time]. Data analysis was performed using Microsoft Excel Software.
# [2] = biological target: T2, CYP2D6 (Homo sapiens, UniProt P10635); assay: Metabolic stability in CYP2D6 SUPERSOMES; type: in vitro ADME; conditions: human, recombinant human CYP2D6 SUPERSOMES; 1 μM test compound, 2 mM NADPH, 0.1 M potassium phosphate buffer pH 7.4, 37° C., 0-30 minutes, parent remaining by LC-MS/MS; read-out: t1/2 ± SD (calculated in vitro half-life in SUPERSOMES)
# T2 construct: purchased GenTest (Woburn, Mass., USA)
# Protocol: as §1, §2
# T2 sequence (P10635 whole entry): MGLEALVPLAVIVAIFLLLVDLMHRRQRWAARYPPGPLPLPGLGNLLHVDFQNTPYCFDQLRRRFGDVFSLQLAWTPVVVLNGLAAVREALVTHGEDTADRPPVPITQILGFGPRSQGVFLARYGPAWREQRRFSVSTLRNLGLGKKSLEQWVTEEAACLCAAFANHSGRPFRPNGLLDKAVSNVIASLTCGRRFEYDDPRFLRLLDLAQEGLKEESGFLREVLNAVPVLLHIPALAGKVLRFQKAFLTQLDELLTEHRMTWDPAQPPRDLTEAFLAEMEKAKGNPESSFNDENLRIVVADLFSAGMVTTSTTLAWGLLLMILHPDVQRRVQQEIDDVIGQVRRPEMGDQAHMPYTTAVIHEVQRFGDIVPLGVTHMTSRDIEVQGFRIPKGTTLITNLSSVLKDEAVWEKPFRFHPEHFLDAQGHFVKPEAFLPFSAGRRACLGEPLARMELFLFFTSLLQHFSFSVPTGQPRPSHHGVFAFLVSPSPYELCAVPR
# T1 sequence (P10635 whole entry): as above
compound,measurement,setting,value
"[2H]C([2H])([2H])N1CC[C@@]23CCCC[C@@H]2[C@@H]1Cc1ccc(OC([2H])(C([2H])([2H])[2H])C([2H])([2H])[2H])cc13 [Compound 102, (+)-3-(Isopropoxy-d7)-17-(methyl-d3)-(9α,13α,14α)-morphinan]",t1/2 ± SD (calculated in vitro half-life in SUPERSOMES),[1],39.0 ± 1.9 min
"[2H]C([2H])([2H])Oc1ccc2c(c1)[C@]13CCCC[C@@H]1[C@H](C2)N(C([2H])([2H])[2H])CC3 [Test Compound, (+)-3-d3-methoxy-17-d3-methyl-(9α,13α,14α)-morphinan]",half-life at 1 μM,[2],5.6 ± 1.5 min
"[2H]C([2H])([2H])C([2H])(Oc1ccc2c(c1)[C@]13CCCC[C@@H]1C(C2)N(C)CC3)C([2H])([2H])[2H] (single isomer, unassigned; (+)) [Compound 106, (+)-3-(Isopropoxy-d7)-17-methyl-(9α,13α,14α)-morphinan]",half-life at 1 μM,[2],36 ± 2.8 min
"[2H]C([2H])([2H])C([2H])([2H])Oc1ccc2c(c1)[C@]13CCCC[C@@H]1C(C2)N(C)CC3 (single isomer, unassigned; (+)) [Compound 104, (+)-3-(Ethoxy-d5)-17-methyl-(9α,13α,14α)-morphinan hydrochloride]",half-life at 1 μM,[2],49.1 ± 4.1 min

# From patent US20230285387A1, “COMBINATION OF MORPHINAN COMPOUNDS AND ANTI[…] THE TREATMENT OF PS[…], NEUROLOGICAL DISEASES, I[…] CHRONIC PAIN AND BRAIN INJURY” (Concert Pharmaceuticals, Inc., priority 2008, published 2023)
